Three compounds from BindingDB's records for doi:10.1021/bi00407a006 (Enscp, 1988) can be followed below.

One may read the Ki as a dissociation constant, usually derived from enzyme kinetics or from competition with a known ligand. Read a high Ki as a looser hold on the target.

The target of this assay is T1, Glutamine--fructose-6-phosphate aminotransferase [isomerizing] (Escherichia coli (strain K12), UniProt P17169).
T1 sequence (P17169 whole entry): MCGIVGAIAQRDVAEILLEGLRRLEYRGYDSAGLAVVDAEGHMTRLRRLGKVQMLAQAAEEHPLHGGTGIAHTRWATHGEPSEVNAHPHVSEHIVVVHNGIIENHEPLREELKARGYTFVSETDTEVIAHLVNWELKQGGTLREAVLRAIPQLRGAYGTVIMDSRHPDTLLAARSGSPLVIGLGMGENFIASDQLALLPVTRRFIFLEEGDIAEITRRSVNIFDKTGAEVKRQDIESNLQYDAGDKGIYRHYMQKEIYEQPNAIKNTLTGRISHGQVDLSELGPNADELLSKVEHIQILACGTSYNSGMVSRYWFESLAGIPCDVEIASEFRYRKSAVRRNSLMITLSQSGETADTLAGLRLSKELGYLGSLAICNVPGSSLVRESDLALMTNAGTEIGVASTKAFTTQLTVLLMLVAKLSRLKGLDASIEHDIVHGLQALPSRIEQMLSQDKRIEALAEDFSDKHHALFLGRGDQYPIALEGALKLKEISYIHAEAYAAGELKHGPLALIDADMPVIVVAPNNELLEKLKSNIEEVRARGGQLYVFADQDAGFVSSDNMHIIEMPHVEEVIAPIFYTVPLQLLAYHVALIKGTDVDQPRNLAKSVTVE
For `COC(=O)/C=C/C(=O)NC[C@H](N)C(=O)O` [(2S)-2-azaniumyl-3-[[(E)-4-methoxy-4-oxobut-2-enoyl]amino]propanoate], the Ki was found to be 350 nM.

`N[C@@H](CNC(=O)/C=C/C(=O)O)C(=O)O` [(E)-4-[[(2S)-2-azaniumyl-2-carboxylatoethyl]amino]-4-oxobut-2-enoate] displayed an inhibition constant Ki of 55100 nM. This Ki lies about 160-fold higher than the previous one.

`N#[N+][CH-]C(=O)CC[C@H](N)C(=O)NCC(=O)O` [(Z,5S)-5-amino-6-(carboxymethylamino)-1-diazonio-6-oxohex-1-en-2-olate] had a Ki of 1400 nM.
